From US20140073651A1, “BENZAMIDE DERIVATIVES AS P2X7 RECEPTOR ANTAGONISTS” (Actelion Pharmaceuticals Ltd., priority 2011, published 2014)

Molecular target: T1, human recombinant P2X7 receptor (Homo sapiens, UniProt Q99572)
T1 construct: expressed in transfected cells
T1 sequence (Q99572 1-595): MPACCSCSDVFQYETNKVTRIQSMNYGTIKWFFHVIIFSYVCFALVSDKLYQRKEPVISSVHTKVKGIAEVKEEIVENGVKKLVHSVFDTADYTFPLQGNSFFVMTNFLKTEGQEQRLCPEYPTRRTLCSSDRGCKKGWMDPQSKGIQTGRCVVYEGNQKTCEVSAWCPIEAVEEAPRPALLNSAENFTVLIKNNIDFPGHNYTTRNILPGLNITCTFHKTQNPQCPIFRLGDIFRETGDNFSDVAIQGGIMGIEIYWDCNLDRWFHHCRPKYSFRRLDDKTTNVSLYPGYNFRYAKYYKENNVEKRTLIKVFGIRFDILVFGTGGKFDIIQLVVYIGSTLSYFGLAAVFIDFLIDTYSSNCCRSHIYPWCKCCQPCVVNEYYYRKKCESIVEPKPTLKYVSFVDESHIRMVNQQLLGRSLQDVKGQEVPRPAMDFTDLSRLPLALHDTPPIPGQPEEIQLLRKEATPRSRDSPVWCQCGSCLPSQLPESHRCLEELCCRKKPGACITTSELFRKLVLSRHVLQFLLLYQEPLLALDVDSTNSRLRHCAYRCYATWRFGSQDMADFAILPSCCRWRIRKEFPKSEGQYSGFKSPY
Assay: YO-PRO assay (YO-PRO-1 uptake) in HEK cells stably expressing P2X7
Format: cell-based
Settings: HEK-293 cells expressing human recombinant P2X7 receptor; ATP 250 μM, 90 minutes; YO-PRO-1 fluorescence (FLIPR tetra); read-out: IC50 (antagonistic activity with respect to the P2X7 receptor)
Method: Cell line generation was performed in general according to established molecular cloning protocols. Specifically, RNA was extracted from human whole blood using the Qiagen RNeasy kit (Qiagen, CH) according to the manufacturer's instructions. Subsequently cDNA was made (Superscript II, Invitrogen AG, CH) and the human P2X7 gene (genbank ref. BC011913) was amplified with the following primers: [NT] and [NT] The amplified sequence was subsequently ligated into a pcDNA3.1 (+) NotI, NheI digested plasmid. […] Following a 24 h exposure to DNA, cells were trypsinized and re-seeded at low density in the presence of 250 μg Geneticin. Geneticin resistant cells were then selected during two consecutive rounds of cloning by serial limiting dilution with visual inspection. Individual clones were screened for P2X7 expression by applying ATP and recording the resultant uptake of YO-[…]. Specific cell clones were chosen based on RNA and protein expression. HEK cells stably expressing P2X7 were used to screen drugs using the YO-[…] assay. Cells were grown to confluency in adherent culture at 37° C. in a humidified 5% CO2 incubator (split 1/5 every 3-4 days with DMEM, 10% FCS, 1% Penicillin/Streptomycin, 250 μg/ml Geneticin). Adherent cells were detached by incubation with Trypsine (1 ml per 165 cm^2 dish) for 2 minutes, then washed off with 10 ml PBS (without Mg^2+ and Ca^2+), and resuspended in DMEM, 10% FCS, 1% Penicillin/Streptomycin, no Geneticin. 10'000 cells per well (48 hours before the assay) or 25'000 cells per well (Vi-cell XR (Beckman Coulter) (24 hours before the assay) in 50 μl full medium were seeded on 384-well black-wall, clear bottom plates, that were coated before with 10 μl per well Poly-L-Lysine, incubated for 30-60 minutes at 37° C. and washed once with PBS. Medium was removed from cells and 50 μl of assay buffer containing 0.5 μM YO-[…] was added into the wells. Solutions of antagonist compounds were prepared by serial dilutions of a 10 mM DMSO solution of the antagonist into PBS using a BioMek (Beckman Coulter). Each concentration was performed in duplicate. […] During this time period, four time points were taken. Each time point comprised the average of several measurements made within a few seconds. […] The FLIPR tetra was equipped with Molecular Devices Screen Works system control software to define and run experimental protocols. […] For IC50 measurements the maximum intensity is plotted against the concentration of compound to determine IC50 values.

SMILES	IC50 [nM]
CC(C)N(c1ccc(Cl)c(C(=O)NCC2(O)CCCCC2)c1)c1cc[nH]c(=O)n1 [Example 25, 2-Chloro-N-(1-hydroxy-cyclohexylmethyl)-5-[isopropyl-(2-oxo-1,2-dihydro-pyrimidin-4-yl)-amino]-benzamide]	109
O=C(NCC1(O)CCCCC1)c1cc(N(Cc2ccccc2)c2ccnc(Cl)n2)ccc1Cl [Example 29, 5-[Benzyl-(2-chloro-pyrimidin-4-yl)-amino]-2-chloro-N-(1-hydroxy-cyclohexylmethyl)-benzamide]	456
COc1nccc(N(Cc2ccccc2)c2ccc(Cl)c(C(=O)NCC3(O)CCCCC3)c2)n1 [Example 31, 5-[Benzyl-(2-methoxy-pyrimidin-4-yl)-amino]-2-chloro-N-(1-hydroxy-cyclohexylmethyl)-benzamide]	566
COCCN(c1ccc(Cl)c(C(=O)NCC2(O)CCCCC2)c1)c1ccnc(Cl)n1 [Example 32, 2-Chloro-5-[(2-chloro-pyrimidin-4-yl)-(2-methoxy-ethyl)-amino]-N-(1-hydroxy-cyclohexylmethyl)-benzamide]	531
COCCN(c1ccc(Cl)c(C(=O)NCC2(O)CCCCC2)c1)c1cc[nH]c(=O)n1 [Example 33, 2-Chloro-N-(1-hydroxy-cyclohexylmethyl)-5-[(2-methoxy-ethyl)-(2-oxo-1,2-dihydro-pyrimidin-4-yl)-amino]-benzamide]	183
COCCN(c1ccc(Cl)c(C(=O)NCC2(O)CCCCC2)c1)c1ccnc(OC)n1 [Example 34, 2-Chloro-N-(1-hydroxy-cyclohexylmethyl)-5-[(2-methoxy-ethyl)-(2-methoxy-pyrimidin-4-yl)-amino]-benzamide]	860
O=C(NCC1(O)CCCCC1)c1cc(N(CC2CCCC2)c2cc[nH]c(=O)n2)ccc1Cl [Example 36, 2-Chloro-5-[cyclopentylmethyl-(2-oxo-1,2-dihydro-pyrimidin-4-yl)-amino]-N-(1-hydroxy-cyclohexylmethyl)-benzamide]	185
O=C(NCC1(O)CCCCC1)c1cc(N(CCOc2ccccc2)c2ccnc(Cl)n2)ccc1Cl [Example 38, 2-Chloro-5-[(2-chloro-pyrimidin-4-yl)-(2-phenoxy-ethyl)-amino]-N-(1-hydroxy-cyclohexylmethyl)-benzamide]	764
O=C(NCC1(O)CCCCC1)c1cc(N(CCOc2ccccc2)c2cc[nH]c(=O)n2)ccc1Cl [Example 39, 2-Chloro-N-(1-hydroxy-cyclohexylmethyl)-5-[(2-oxo-1,2-dihydro-pyrimidin-4-yl)-(2-phenoxy-ethyl)-amino]-benzamide]	378
C[C@@H](NC(=O)c1cc(N(C)c2ccnc(Cl)n2)ccc1Cl)C1CCCCC1 [Example 41, 2-Chloro-5-[(2-chloro-pyrimidin-4-yl)-methyl-amino]-N—((R)-1-cyclohexyl-ethyl)-benzamide]	384
C[C@@H](NC(=O)c1cc(N(C)c2cc[nH]c(=O)n2)ccc1Cl)C1CCCCC1 [Example 42, 2-Chloro-N—((R)-1-cyclohexyl-ethyl)-5-[methyl-(2-oxo-1,2-dihydro-pyrimidin-4-yl)-amino]-benzamide]	38
CN(c1ccc(Cl)c(C(=O)N[C@H](CO)C2CCCCC2)c1)c1ccnc(Cl)n1 [Example 43, 2-Chloro-5-[(2-chloro-pyrimidin-4-yl)-methyl-amino]-N—((S)-1-cyclohexyl-2-hydroxy-ethyl)-benzamide]	136
CN(c1ccc(Cl)c(C(=O)N[C@H](CO)C2CCCCC2)c1)c1cc[nH]c(=O)n1 [Example 44, 2-Chloro-N—((S)-1-cyclohexyl-2-hydroxy-ethyl)-5-[methyl-(2-oxo-1,2-dihydro-pyrimidin-4-yl)-amino]-benzamide]	33
CN(c1ccc(Cl)c(C(=O)NCC2(O)CCCCCC2)c1)c1ccnc(Cl)n1 [Example 45, 2-Chloro-5-[(2-chloro-pyrimidin-4-yl)-methyl-amino]-N-(1-hydroxy-cycloheptylmethyl)-benzamide]	89
CN(c1ccc(Cl)c(C(=O)NCC2(O)CCCCCC2)c1)c1cc[nH]c(=O)n1 [Example 46, 2-Chloro-N-(1-hydroxy-cycloheptylmethyl)-5-[methyl-(2-oxo-1,2-dihydro-pyrimidin-4-yl)-amino]-benzamide]	21
CN(c1ccc(Cl)c(C(=O)NCC2(O)CCCCCCC2)c1)c1ccnc(Cl)n1 [Example 47, 2-Chloro-5-[(2-chloro-pyrimidin-4-yl)-methyl-amino]-N-(1-hydroxy-cyclooctylmethyl)-benzamide]	116

Further lines, results first:

IC50 [nM]	SMILES
267	CCCN(c1ccc(Cl)c(C(=O)NCC2(O)CCCCC2)c1)c1ccnc(Cl)n1 [Example 22, 2-Chloro-5-[(2-chloro-pyrimidin-4-yl)-propyl-amino]-N-(1-hydroxy-cyclohexylmethyl)-benzamide]
18	CCCN(c1ccc(Cl)c(C(=O)NCC2(O)CCCCC2)c1)c1cc[nH]c(=O)n1 [Example 23, 2-Chloro-N-(1-hydroxy-cyclohexylmethyl)-5-[(2-oxo-1,2-dihydro-pyrimidin-4-yl)-propyl-amino]-benzamide]
236	CC(C)N(c1ccc(Cl)c(C(=O)NCC2(O)CCCCC2)c1)c1ccnc(Cl)n1 [Example 24, 2-Chloro-5-[(2-chloro-pyrimidin-4-yl)-isopropyl-amino]-N-(1-hydroxy-cyclohexylmethyl)-benzamide]
317	CC(C)CN(c1ccc(Cl)c(C(=O)NCC2(O)CCCCC2)c1)c1ccnc(Cl)n1 [Example 26, 2-Chloro-5-[(2-chloro-pyrimidin-4-yl)-isobutyl-amino]-N-(1-hydroxy-cyclohexylmethyl)-benzamide]
30	CC(C)CN(c1ccc(Cl)c(C(=O)NCC2(O)CCCCC2)c1)c1cc[nH]c(=O)n1 [Example 27, 2-Chloro-N-(1-hydroxy-cyclohexylmethyl)-5-[isobutyl-(2-oxo-1,2-dihydro-pyrimidin-4-yl)-amino]-benzamide]
353	COc1nccc(N(CC(C)C)c2ccc(Cl)c(C(=O)NCC3(O)CCCCC3)c2)n1 [Example 28, 2-Chloro-N-(1-hydroxy-cyclohexylmethyl)-5-[isobutyl-(2-methoxy-pyrimidin-4-yl)-amino]-benzamide]
181	O=C(NCC1(O)CCCCC1)c1cc(N(Cc2ccccc2)c2cc[nH]c(=O)n2)ccc1Cl [Example 30, 5-[Benzyl-(2-oxo-1,2-dihydro-pyrimidin-4-yl)-amino]-2-chloro-N-(1-hydroxy-cyclohexylmethyl)-benzamide]
367	O=C(NCC1(O)CCCCC1)c1cc(N(CC2CCCC2)c2ccnc(Cl)n2)ccc1Cl [Example 35, 2-Chloro-5-[(2-chloro-pyrimidin-4-yl)-cyclopentylmethyl-amino]-N-(1-hydroxy-cyclohexylmethyl)-benzamide]
588	COc1nccc(N(CCOc2ccccc2)c2ccc(Cl)c(C(=O)NCC3(O)CCCCC3)c2)n1 [Example 40, 2-Chloro-N-(1-hydroxy-cyclohexylmethyl)-5-[(2-methoxy-pyrimidin-4-yl)-(2-phenoxy-ethyl)-amino]-benzamide]
15	CN(c1ccc(Cl)c(C(=O)NCC2(O)CCCCCCC2)c1)c1ccnc(=O)[nH]1 [Example 48, 2-Chloro-N-(1-hydroxy-cyclooctylmethyl)-5-[methyl-(2-oxo-2,3-dihydro-pyrimidin-4-yl)-amino]-benzamide]
